# “Also recorded” adds a separate entry of the source.
# Assays:
# rhesus monkeys = assay: Thermal tail withdrawal model of oxycodone antinociception in rhesus monkeys; format: in vivo, rhesus monkey; settings: 10 mg/kg, i.m.
# human D4R = human D4R (Homo sapiens (Human), UniProt P21917); assay: Radioligand competition binding, [3H]N-methylspiperone, HEK293 membranes expressing human D4R; settings: Table 1A; μM; read-out: D4R Ki
# Method in brief: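 HEK293 membranes with human D4R (20 μg protein) and 0.4 nM [3H]N-methylspiperone in EBSS with sodium metabisulfite, 1 h at room temperature, filtration read-out. Compounds 10 μM to 10 pM; nonspecific binding with 10 μM butaclamol. Ki by Cheng-Prusoff from IC50, at least three experiments.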
# Male Long-Evans rats = assay: Maintenance of oxycodone self-administration and oxycodone-seeking after oxycodone was replaced by saline; format: in vivo, rat; settings: i.p.
# Description: Four groups of rats (n=7/group) were first trained to self-administer oxycodone at a dose of 100 μg/kg/infusion for 2 weeks followed by 50 μg/kg/infusion for the rest of the training sessions and for the test session. The daily self-administration of oxycodone at the low dose continued until the average oxycodone infusions/session varied less than 10% over 3 consecutive sessions (normally 6-10 sessions were required to meet this criterion of stability). On the following test day, the groups of rats were first systemically injected with either vehicle or a dose of compound (±)-29 (5, 15 or 25 mg/kg, i.p.), and 15 min later, the animals were allowed to self-administer oxycodone.
# Following completion of the self-administration testing, the rats continued to self-administer oxycodone (50 μg/kg/infusion) for additional 4 sessions. On the next day, the animals were re-assigned into 3 groups, and pretreated with either vehicle or 1 of the 2 doses of compound (±)-29 (5 or 15 mg/kg). Fifteen min later, the animals were placed in the chambers, and allowed to lever-press for an extinction session during which saline was substituted for […]. Other conditions remain the same as […] session.
# human D4R, sequence (P21917 whole entry): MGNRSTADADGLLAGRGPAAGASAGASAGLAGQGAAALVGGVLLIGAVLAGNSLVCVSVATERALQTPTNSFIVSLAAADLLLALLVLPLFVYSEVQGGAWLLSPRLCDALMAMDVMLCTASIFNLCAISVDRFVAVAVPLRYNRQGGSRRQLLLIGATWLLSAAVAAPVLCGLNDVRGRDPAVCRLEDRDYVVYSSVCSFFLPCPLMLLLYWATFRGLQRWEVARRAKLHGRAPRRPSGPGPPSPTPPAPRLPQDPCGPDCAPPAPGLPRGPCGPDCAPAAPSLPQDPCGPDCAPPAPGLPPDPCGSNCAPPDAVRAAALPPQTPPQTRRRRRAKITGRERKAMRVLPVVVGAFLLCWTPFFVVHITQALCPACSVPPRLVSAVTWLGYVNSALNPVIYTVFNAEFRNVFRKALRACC
smiles,measurement,setting,value
"CCc1cc(Cl)c(OC)c(N2CCN(CC(O)CCNC(=O)c3cc4ccccc4[nH]3)CC2)c1 (racemic) [Compound 29, N-(4-(4-(3-chloro-5-ethyl-2-methoxyphenyl)piperazin-1-yl)-3-hydroxybutyl)-1H-indole-2-carboxamide]",antinociception at submaximal dose of 0.1 mg/kg oxycodone,rhesus monkeys,potentiated antinociception; also recorded: potentiates the analgesic effects
same,oxycodone antinociception at the highest and lowest doses of oxycodone,rhesus monkeys,no effect on oxycodone antinociception
same,Ki,human D4R,> 100 µM
same,oxycodone infusions during maintenance of self-administration,Male Long-Evans rats; 5-25 mg/kg,dose-dependently decreased oxycodone infusions; also recorded: dose-dependently reduced oxycodone self-administration
same,oxycodone-seeking behavior (extinction responding) when saline was substituted for oxycodone,Male Long-Evans rats; 5 or 15 mg/kg,dose-dependently inhibited oxycodone-seeking behavior; also recorded: dose-dependently reduced

# From patent publication US11337971B2, “Dopamine D3 receptor selective antagonists/partial agonists and uses thereof” (THE UNITED STATES OF AMERICA, AS REPRESENTED BY THE …, priority 2018, dated 2022)
